In patent publication US11655241B2, “Heterocyclic compound and use thereof” (Takeda Pharmaceutical Company Limited, priority 2018, dated 2023):

Molecular target: T1, human orexin type 2 receptor (Homo sapiens, UniProt O43614)
T1 construct: expressed in transfected cells
T1 sequence (O43614 1-444): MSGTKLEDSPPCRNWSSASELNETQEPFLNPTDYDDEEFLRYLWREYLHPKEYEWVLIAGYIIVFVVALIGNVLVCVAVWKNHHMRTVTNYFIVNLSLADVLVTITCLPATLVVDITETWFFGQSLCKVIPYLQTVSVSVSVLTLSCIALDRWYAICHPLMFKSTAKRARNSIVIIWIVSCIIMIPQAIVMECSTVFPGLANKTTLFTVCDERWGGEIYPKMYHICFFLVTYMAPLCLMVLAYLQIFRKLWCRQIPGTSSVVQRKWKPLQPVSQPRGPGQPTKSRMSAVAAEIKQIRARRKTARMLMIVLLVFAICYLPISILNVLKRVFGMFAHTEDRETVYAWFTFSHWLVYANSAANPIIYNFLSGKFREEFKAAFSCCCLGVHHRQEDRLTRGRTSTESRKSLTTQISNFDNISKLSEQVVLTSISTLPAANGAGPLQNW
Assay: Measurement of orexin type 2 receptor agonist activity (calcium fluorescence, Fluo-4 AM, FDSS)
Assay type: cell-based
Conditions: compound at 3 μM; CHO cells forcibly expressing human OX2 receptor; DMSO = 0%, orexin A (human) 10 nM = 100%
Description: Experimental Example 1: Obtainment of Cell Stably Expressing Human Orexin Type 2 Receptor (hOX2R)
To obtain a cell clone stably expressing human orexin type 2 receptor, human orexin type 2 receptor cDNA was inserted into pcDNA3.1(+) plasmid vector (Invitrogen), and a plasmid DNA for expression of human orexin type 2 receptor (pcDNA3.1(+)/hOX2R) was cloned. The plasmid DNA was introduced into CHO-dhfr cell by an electroporation method, and human orexin type 2 receptor expressing clone cells were obtained by limiting dilution method by using G418 drug resistance as a selection marker.
Experimental Example 2: Measurement of Orexin Type 2 Receptor Agonist Activity
CHO cells forcibly expressing human OX2 receptor were seeded in each well of 384 well black transparent bottom plate (BD Falcon) at 7,500 cells/well, and cultured for one day in a 5% CO2 incubator at 37° C. After removal of the medium in the cell plate, assay buffer A containing a calcium indicator (HBSS (Thermo Fisher Scientific), 20 mM HEPES (Thermo Fisher Scientific), 0.1% BSA (Wako Pure Chemical Industries, Ltd. or Sigma-Aldrich), 2.5 μg/mL Fluo-4 AM (DOJINDO Chemical), 0.08% Pluronic F127 (DOJINDO Chemical), 1.25 mM probenecid (DOJINDO Chemical)) was added at 30 μL/well. The plate was stood for 30 min in a 5% CO2 incubator at 37° C., and further stood at room temperature for 30 min. A test compound prepared by diluting with assay buffer B (HBSS, 20 mM HEPES, 0.1% BSA) was added at 10 μL/well, and the fluorescence value was measured by FDSSμCELL (Hamamatsu Photonics K.K.) every one sec for 1 min, and thereafter every two sec for 1 min 40 sec. The activity (%) of the test compound was calculated assuming that variation in the fluorescence value when DMSO was added instead of the test compound was 0%, and variation in the fluorescence value when orexin A (human) (PEPTIDE INSTITUTE, INC.) was added at the final concentration of 10 nM was 100%. The activity of each compound at the concentration of 3 μM was shown below.

OX2R agonist activity (3 μM, %) | Structure (SMILES)
33% | COC(=O)N[C@H]1CCN(C(=O)C2CCC2)[C@H]1Cc1cccc(-c2cccc(F)c2)c1 (relative stereo) [Example 1, methyl{cis-1-(cyclobutanecarbonyl)-2-[(3′-fluoro[1,1′-biphenyl]-3-yl)methyl]pyrrolidin-3-yl}carbamate]
92% | O=C(N[C@H]1CCN(C(=O)C2CCC2)[C@H]1Cc1cccc(-c2cccc(F)c2)c1)C1CCCO1 (relative stereo) [Example 5, N-{cis-1-(cyclobutanecarbonyl)-2-[(3′-fluoro[1,1′-biphenyl]-3-yl)methyl]pyrrolidin-3-yl}oxolane-2-carboxamide]
60% | O=C(CO)N[C@H]1CCN(C(=O)C2CCC2)[C@H]1Cc1cccc(-c2cccc(F)c2)c1 (relative stereo) [Example 6, N-{cis-1-(cyclobutanecarbonyl)-2-[(3′-fluoro[1,1′-biphenyl]-3-yl)methyl]pyrrolidin-3-yl}-2-hydroxyacetamide]
66% | CC(F)(F)C(=O)N[C@H]1CCN(C(=O)C2CCC2)[C@H]1Cc1cccc(-c2cccc(F)c2)c1 (relative stereo) [Example 8, N-{cis-1-(cyclobutanecarbonyl)-2-[(3′-fluoro [1,1′-biphenyl]-3-yl)methyl]pyrrolidin-3-yl}-2,2-difluoropropanamide]
79% | O=C(C1CCC1)N1CC[C@H](NC(=O)C2(F)CCC2)[C@@H]1Cc1cccc(-c2cccc(F)c2)c1 (relative stereo) [Example 10, N-{cis-1-(cyclobutanecarbonyl)-2-[(3′-fluoro[1,1′-biphenyl]-3-yl)methyl]pyrrolidin-3-yl}-1-fluorocyclobutane-1-carboxamide]
93% | COC1(C(=O)N[C@H]2CCN(C(=O)C3CCC3)[C@H]2Cc2cccc(-c3cccc(F)c3)c2)CC1 (relative stereo) [Example 11, N-{cis-1-(cyclobutanecarbonyl)-2-[(3′-fluoro[1,1′-biphenyl]-3-yl)methyl]pyrrolidin-3-yl}-1-methoxycyclopropane-1-carboxamide]
90% | O=C(NC1CCN(C(=O)C2CCC2)C1Cc1cccc(-c2cccc(F)c2)c1)[C@@H]1CCCO1 (stereo in doubt) [Example 16, (2S)-N-{cis-1-(cyclobutanecarbonyl)-2-[(3′-fluoro[1,1′-biphenyl]-3-yl)methyl]pyrrolidin-3-yl}oxolane-2-carboxamide]
95% | CN(C)C(=O)C(=O)NC1CCN(C(=O)C2CCC2)C1Cc1cccc(-c2cccc(F)c2)c1 (stereo not drawn) [Example 4, N^~2^~-{cis-1-(cyclobutanecarbonyl)-2-[(3′-fluoro[1,1′-biphenyl]-3-yl)methyl]pyrrolidin-3-yl}-N^~1^~,N^~1^~- dimethylethanediamide]
89% | CN(C)C(=O)C(=O)N[C@H]1CCN(C(=O)N2CCC2)[C@H]1Cc1csc(-c2cccc(F)c2)n1 [Example 19, N^~2^~-[(2S,3S)-1-(azetidine-1-carbonyl)-2-{[2-(3-fluorophenyl)-1,3-thiazol-4-yl]methyl}pyrrolidin-3-yl]-N^~1,N^~1^~- dimethylethanediamide]
82% | CN(C)C(=O)C(=O)N[C@H]1CCN(C(=O)C2CCC2)[C@H]1Cc1csc(-c2cccc(F)c2)n1 [Example 20, N^~2^~-[(2S,3S)-1-(cyclobutanecarbonyl)-2-{[2-(3-fluorophenyl)-1,3-thiazol-4-yl]methyl}pyrrolidin-3-yl]-N^~1,N^~1^~- dimethylethanediamide]
59% | O=C(N[C@H]1CCN(C(=O)N2CCC2)[C@H]1Cc1cccc(-c2cccc(F)c2)n1)[C@@H]1CCCO1 [Example 21, (2S)-N-[(2S,3S)-1-(azetidine-1-carbonyl)-2-{[6-(3-fluorophenyl)pyridin-2-yl]methyl]pyrrolidin-3-yl]oxolane-2-carboxamide]
76% | O=C(N[C@H]1CCN(C(=O)N2CCC2)[C@H]1Cc1csc(-c2cccc(F)c2)n1)[C@@H]1CCCO1 [Example 23, (2S)-N-[(2S,3S)-1-(azetidine-1-carbonyl)-2-{[2-(3-fluorophenyl)-1,3-thiazol-4-yl]methyl}pyrrolidin-3-yl]oxolane-2-carboxamide]
65% | O=C(N[C@H]1CCN(C(=O)C2CCC2)[C@H]1Cc1csc(-c2cccc(F)c2)n1)[C@@H]1CCCO1 [Example 24, (2S)-N-[(2S,3S)-1-(cyclobutanecarbonyl)-2-{[2-(3-fluorophenyl)-1,3-thiazol-4-yl]methyl}pyrrolidin-3-yl]oxolane-2-carboxamide]
54% | COC1(C(=O)N[C@H]2CCN(C(=O)N3CCC3)[C@H]2Cc2cccc(-c3cccc(F)c3)n2)CC1 [Example 25, N-[(2S,3S)-1-(azetidine-1-carbonyl)-2-([6-(3-fluorophenyl)pyridin-2-yl]methyl]pyrrolidin-3-yl]-1-methoxycyclopropane-1-carboxamide]
67% | COC1(C(=O)N[C@H]2CCN(C(=O)N3CCC3)[C@H]2Cc2csc(-c3cccc(F)c3)n2)CC1 [Example 26, N-[(2S,3S)-1-(azetidine-1-carbonyl)-2-{[2-(3-fluorophenyl)-1,3-thiazol-4-yl]methyl}pyrrolidin-3-yl]-1-methoxycyclopropane-1-carboxamide]
60% | COC1(C(=O)N[C@H]2CCN(C(=O)C3CCC3)[C@H]2Cc2csc(-c3cccc(F)c3)n2)CC1 [Example 27, N-[(2S,3S)-1-(cyclobutanecarbonyl)-2-{[2-(3-fluorophenyl)-1,3-thiazol-4-yl]methyl}pyrrolidin-3-yl]-1-methoxycyclopropane-1-carboxamide]
80% | CN(C)C(=O)C(=O)NC1CCCN(C(=O)C2CCC2)C1Cc1cccc(-c2cccc(F)c2)c1 (stereo not drawn) [Example 29, N^~2^~-{cis-1-(cyclobutanecarbonyl)-2-[(3′-fluoro[1,1′-biphenyl]-3-yl)methyl]piperidin-3-yl}-N^~1^~,N^~1^~- dimethylethanediamide]
101% | CN(C)C(=O)C(=O)N[C@H]1CCN(C(=O)N2CCC2)[C@H]1Cc1cccc(-c2cccc(F)c2)c1 [Example 30, N^~2^~-{(2S,3S)-1-(azetidine-1-carbonyl)-2-[(3′-fluoro[1,1′-biphenyl]-3-yl)methyl]pyrrolidin-3-yl}-N^~1^~,N^~1^~-dimethylethanediamide]
104% | O=C(N[C@H]1CCN(C(=O)N2CCC2)[C@H]1Cc1cccc(-c2cccc(F)c2)c1)[C@@H]1CCCO1 [Example 31, (2S)-N-{(2S,3S)-1-(azetidine-1-carbonyl)-2-[(3′-fluoro[1,1′-biphenyl]-3-yl)methyl]pyrrolidin-3-yl}oxolane-2-carboxamide]
103% | CN(C)C(=O)C(=O)N[C@H]1CCN(C(=O)C2CCC2)[C@H]1Cc1cccc(-c2cccc(F)c2)c1 [Example 32, N^~2^~-{(2S,3S)-1-(cyclobutanecarbonyl)-2-[(3′-fluoro[1,1′-biphenyl]-3-yl)methyl]pyrrolidin-3-yl}-N^~1^~,N^~1^~- dimethylethanediamide]
97% | O=C(N[C@H]1CCN(C(=O)C2CCC2)[C@H]1Cc1cccc(-c2cccc(F)c2)c1)[C@@H]1CCCO1 [Example 33, (2S)-N-{(2S,3S)-1-(cyclobutanecarbonyl)-2-[(3′-fluoro[1,1′-biphenyl]-3-yl)methyl]pyrrolidin-3-yl}oxolane-2-carboxamide]
75% | CN(C)C(=O)C(=O)N[C@H]1CCN(C(=O)C2(F)CCC2)[C@H]1Cc1cccc(-c2cccc(F)c2)c1 [Example 35, N^~2^~-[(2S,3S)-2-[(3′-fluoro[1,1′-biphenyl]-3-yl)methyl]-1-(1-fluorocyclobutane-1-carbonyl)pyrrolidin-3-yl]-N^~1^~,N^~1^~- dimethylethanediamide]
